Assay results from patent EP2842558A1, “CGRP RESP[…]” (Kao Corporation, priority 2012, dated 2013).

Test system: Normal human coronary artery smooth muscle cells (HCASMC)
Assay: Measurement of responsiveness to CGRP (intracellular cAMP EIA after 0.5 nM CGRP stimulation)
Assay type: cell-based
Details: lignan at predetermined concentrations during 60 min PDI infiltration and 15 min 0.5 nM CGRP stimulation, control = 0.5 nM CGRP only (100% = 1189.3 fmol/well), Dunnett's test, N = 3, Fig. 1
Protocol: Normal human coronary artery smooth muscle cells (HCASMC; Kurabo Industries, Ltd., cell lot #01272) were cultured in a growth medium (product obtained by adding 25 ml of FBS, 0.5 ml of hEGF, 0.5 ml of hFGF-B, 0.5 ml of insulin and 0.5 ml of an antibacterial agent to 500 ml of basal medium HuMedia-SB2; Kurabo Industries, Ltd). 0.025% Trypsin/0.01% EDTA was used for the passage. […]
The cells were washed twice with a basal medium (HuMedia-SB2; Kurabo Industries, Ltd.) containing phosphodiesterase inhibitors (PDI), IBMX (3-isobutyl-1-methylxanthine, 500 µM, Sigma-Aldrich Co.), Ro-20-1724 (100 µM; Wako Pure Chemical Industries, Ltd.), and a lignan compound shown below at a predetermined concentration. […] Termination of the reaction was carried out by adding a lysis buffer attached to a cAMP analysis EIA kit (cAMP EIA (non-acetylation); GE Healthcare Biosciences Corp.) to the cells, and the intracellular cAMP concentration ([cAMP]i) was measured according to the method described in the manual. […]
HCASMC (Kurabo Industries, Ltd., cell lot #01272) was prepared under the same conditions as those used in Example 1. […] Thereafter, the cellular responsiveness to CGRP was measured by the same method as that used in Example 1.

Compound	cellular responsiveness to CGRP (Improve Index, percentage of [cAMP]i)
COc1cc([C@@H]2c3cc4c(cc3C[C@H]3COC(=O)[C@@H]32)OCO4)cc(OC)c1OC [TD-2]	significantly promoted the cellular responsiveness to CGRP in a concentration-dependent manner
COc1cc([C@@H]2c3cc4c(c(OC)c3C[C@H]3COC(=O)[C@@H]32)OCO4)cc(OC)c1OC [TD-1]	significantly promoted the cellular responsiveness to CGRP in a concentration-dependent manner
